The values below come from US8575135B2 (Gilead Sciences, Inc., priority 2011, dated 2013).

Read-outs that look alike come from different tables or passages of the source. Some results are limits rather than exact numbers.

The subject of series [1] is stable HCV 1a RLuc replicon cells (genotype 1a H77 replicon). Description: microbe, parasite or virus in culture. In kind it is cell-based. To be noted: Hepatitis C virus.
Series [2] has as its system stable HCV 2a JFH-1 Rluc replicon cells (L31 present in NS5A). Briefly: microbe, parasite or virus in culture. In kind it is cell-based. As to conditions: Hepatitis C virus.
The test system of series [3] is NS5A chimeric genotype 1b Con1 replicon with genotype 3a S52 strain NS5A gene. Description: microbe, parasite or virus in culture. In kind it is cell-based, HCV. To be noted: Hepatitis C virus. Put shortly:
(§1)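 Genotype 3a (S52) and 4a (ED43) NS5A chimeras use 1b Con1 Pi-RLuc replicons, transfected transiently; 2b MD2b-1 NS5A chimera (M31) uses 2a JFH-1 RLuc-Neo replicon, transient or stable.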

Series [4] deals with NS5A chimeric genotype 2a JFH-1 replicon with genotype 2a J6 strain NS5A gene (M31 present). Description: microbe, parasite or virus in culture. In kind it is cell-based, HCV. To be noted: Hepatitis C virus.
Series [5] has as its system NS5A chimeric genotype 2a JFH-1 replicon with genotype 2b MD2b-1 strain NS5A gene (M31 present). Description: microbe, parasite or virus in culture. In kind it is cell-based, HCV. As to conditions: Hepatitis C virus. Put shortly:
as §1

Series [6] relates to NS5A chimeric genotype 1b Con1 replicon with genotype 4a ED43 strain NS5A gene. Briefly: microbe, parasite or virus in culture. In kind it is cell-based, HCV. To be noted: Hepatitis C virus.
Series [7] deals with 1a Pi-Rluc replicon with Q30R in genotype 1a NS5A. Briefly: microbe, parasite or virus in culture. To be noted: Hepatitis C virus. It is filed as cell-based, HCV. Put shortly: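 Q30R introduced by site-directed mutagenesis into genotype 1a Pi-RLuc replicon; RNA transiently transfected into Huh-7-derived cured-51 cells.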
The nature of series [8]: IV and PO single dose pharmacokinetic studies in SD rats. In kind it is in vivo. To be noted: male, Sprague-Dawley, rat, plasma, IV infusion 1 mg/kg vs oral gavage 2 mg/kg, read-out: Rat % F. Here is the method: IV and PO Single Dose Pharmacokinetic Studies in SD Rats: The pharmacokinetics of selected compounds was characterized in male Sprague-Dawley (SD) rats (250-300g). […] The intravenous (IV) dosing vehicle was 5% ethanol, 35% polyethylene glycol 400 (PEG 400) and 60% water pH 2.0. […] Serial blood samples (approximately 0.3 mL each) were collected from jugular vein or other suitable vein at specified time points. […] The blood samples were collected into Vacutainer™ tubes containing EDTA-K3 as the anti-coagulant and were centrifuged at approximately 4° C. to obtain plasma. The plasma samples were stored at −20° C. until analysis by LC/MS/MS. A bioanalytical method utilizing high performance liquid chromatography coupled to tandem mass spectrometry (LC/MS/MS) was developed for analysis of the selected compound in rat plasma. Detection was performed using selected reaction monitoring (SRM); […] Standard curve and quality control samples were prepared in male rat plasma and processed in the same way as the test samples to generate quantitative data. Pharmacokinetic parameters were generated using non-compartmental pharmacokinetic analysis (Phoenix WinNonlin, version 6.3). Values below the lower limit of quantification (LLOQ) were assigned a value of zero if predose and treated as missing thereafter. Area under the curve (AUC) was calculated using the linear trapezoidal rule. The oral bioavailability (% F) was determined by comparison of the area under the curve (AUC) of the compound and/or a metabolite generated in plasma following oral administration to that generated following intravenous administration.

On to `COC[C@H]1C[C@@H](c2nc3ccc4cc5c(cc4c3[nH]2)OCc2cc(-c3cnc([C@@H]4C[C@H](C)CN4C(=O)[C@@H](NC(=O)OC)C(C)C)[nH]3)ccc2-5)N(C(=O)[C@H](NC(=O)OC)c2ccccc2)C1` [Example MN, methyl {(2S)-1-[(2S,4S)-2-(5-{2-[(2S,4S)-1-{(2R)-2-[(methoxycarbonyl)amino]-2-phenylacetyl}-4-(methoxymethyl)pyrrolidin-2-yl]-1,11-dihydroisochromeno[4′,3′:6,7]naphtho[1,2-d]imidazol-9-yl}-1H-imidazol-2-yl)-4-methylpyrrolidin-1-yl]-3-methyl-1-oxobutan-2-yl}carbamate], for which the EC50 in series [1] (read-out: 1a) was less than 1 nM; in series [1] (read-out: 1a (nM)), 0.014 nM; in series [2] (read-out: 2a JFH) it was less than 1 nM; in series [2] (read-out: 2a JFH (nM)) it was 0.008 nM; in series [3] (read-out: 3a), less than 1 nM; in series [3] (read-out: 3a (nM)), 0.034 nM. Also, the EC50 in series [4] (read-out: 2a J6) was less than 1 nM; in series [4] (read-out: 2a J6 (s) (nM)) it was 0.071 nM; in series [4] (read-out: 2a Jb (t) (nM)) it was 0.017 nM; in series [5] (read-out: 2b), less than 1 nM; in series [5] (read-out: 2b (s) (nM)), 0.04 nM; in series [5] (read-out: 2b (t) (nM)), 0.013 nM. The EC50 in series [6] (read-out: 4a) is less than 1 nM; in series [6] (read-out: 4a (s) (nM)), 0.007 nM; in series [6] (read-out: 4a (t) (nM)), 0.024 nM; in series [7] (read-out: 1a Q30R), less than 1 nM; in series [7] (read-out: 1a Q30R (nM)), 0.018 nM. Also, in series [8], the bioavailability came out at 1.5%.
Regarding `COC[C@H]1C[C@@H](c2ncc(-c3ccc4c(c3)COc3cc5c(ccc6nc([C@@H]7C[C@H](C)CN7C(=O)[C@@H](NC(=O)OC)C(C)C)[nH]c65)cc3-4)[nH]2)N(C(=O)[C@H](NC(=O)OC)c2ccccc2)C1` [Example NM, Methyl {(1R)-2-[(2S,4S)-2-(5-{2-[(2S,4S)-1-{(2S)-2-[(methoxycarbonyl)amino]-3-methylbutanoyl}-4-methylpyrrolidin-2-yl]-1,11-dihydroisochromeno[4′,3′:6,7]naphtho[1,2-d]imidazol-9-yl}-1H-imidazol-2-yl)-4-(methoxymethyl)pyrrolidin-1-yl]-2-oxo-1-phenylethyl}carbamate], the EC50 in series [1] (read-out: 1a) was less than 1 nM; in series [1] (read-out: 1a (nM)), 0.011 nM; in series [2] (read-out: 2a JFH), less than 1 nM; in series [2] (read-out: 2a JFH (nM)), 0.006 nM; in series [3] (read-out: 3a), less than 1 nM; in series [3] (read-out: 3a (nM)) it was 0.024 nM. Besides, the EC50 in series [4] (read-out: 2a J6) was less than 1 nM; in series [4] (read-out: 2a Jb (t) (nM)), 0.012 nM; in series [5] (read-out: 2b), less than 1 nM; in series [5] (read-out: 2b (t) (nM)), 0.013 nM; in series [7] (read-out: 1a Q30R), less than 1 nM; in series [7] (read-out: 1a Q30R (nM)), 0.028 nM. Also, in series [8], the bioavailability is 6.93%.
In the case of `COC[C@H]1C[C@@H](c2ncc(-c3ccc4c(c3)COc3cc5c(cc3-4)CCc3nc([C@@H]4CC[C@H](C)N4C(=O)[C@@H](NC(=O)OC)C(C)C)[nH]c3-5)[nH]2)N(C(=O)[C@H](NC(=O)OC)c2ccccc2)C1` [Example OH, methyl {(1R)-2-[(2S,4S)-2-(5-{2-[(2S,5S)-1-{(2S)-2-[(methoxycarbonyl)amino]-3-methylbutanoyl}-5-methylpyrrolidin-2-yl]-1,4,5,11-tetrahydroisochromeno[4′,3′:6,7]naphtho[1,2-d]imidazol-9-yl}-1H-imidazol-2-yl)-4-(methoxymethyl)pyrrolidin-1-yl]-2-oxo-1-phenylethyl}carbamate], the EC50 in series [1] (read-out: 1a) was less than 1 nM; in series [1] (read-out: 1a (nM)) it was 0.016 nM; in series [2] (read-out: 2a JFH) it was less than 1 nM; in series [2] (read-out: 2a JFH (nM)), 0.007 nM; in series [3] (read-out: 3a) it was less than 1 nM; in series [3] (read-out: 3a (nM)) it was 0.026 nM. The EC50 in series [4] (read-out: 2a J6) is less than 1 nM; in series [4] (read-out: 2a Jb (t) (nM)) it was 0.054 nM; in series [5] (read-out: 2b) it was less than 1 nM; in series [5] (read-out: 2b (s) (nM)), 0.022 nM; in series [5] (read-out: 2b (t) (nM)) it was 0.023 nM; in series [7] (read-out: 1a Q30R) it was less than 1 nM. In series [7] (read-out: 1a Q30R (nM)), the EC50 turned out to be 0.031 nM. In addition, the bioavailability in series [8] came out at 22.7%.
`COC[C@H]1C[C@@H](c2nc3ccc4cc5c(cc4c3[nH]2)OCc2cc(-c3cnc([C@@H]4CC[C@H](C)N4C(=O)[C@@H](NC(=O)OC)C(C)C)[nH]3)ccc2-5)N(C(=O)[C@@H](NC(=O)OC)[C@@H](C)OC)C1` [Example OM, Methyl {(2S)-1-[(2S,4S)-2-(5-{2-[(2S,5S)-1-{(2S,3R)-3-methoxy-2-[(methoxycarbonyl)amino]butanoyl}-4-(methoxymethyl)pyrrolidin-2-yl]-1,11-dihydroisochromeno[4′,3′:6,7]naphtho[1,2-d]imidazol-9-yl}-1H-imidazol-2-yl)-5-methylpyrrolidin-1-yl]-3-methyl-1-oxobutan-2-yl}carbamate]: the EC50 is less than 1 nM in series [1] (read-out: 1a); 0.014 nM in series [1] (read-out: 1a (nM)); less than 1 nM in series [2] (read-out: 2a JFH); 0.009 nM in series [2] (read-out: 2a JFH (nM)); less than 1 nM in series [3] (read-out: 3a); 0.035 nM in series [3] (read-out: 3a (nM)). The EC50 in series [4] (read-out: 2a J6) was less than 1 nM; in series [4] (read-out: 2a Jb (t) (nM)) it was 0.045 nM; in series [5] (read-out: 2b), less than 1 nM; in series [5] (read-out: 2b (s) (nM)), 0.054 nM; in series [5] (read-out: 2b (t) (nM)) it was 0.053 nM; in series [7] (read-out: 1a Q30R), less than 1 nM. Also, in series [7] (read-out: 1a Q30R (nM)), the EC50 was 0.035 nM. The bioavailability in series [8] was determined as 12.2%.
`COC[C@H]1C[C@@H](c2nc3c([nH]2)-c2cc4c(cc2CC3)-c2ccc(-c3cnc([C@@H]5CC[C@H](C)N5C(=O)[C@@H](NC(=O)OC)C(C)C)[nH]3)cc2CO4)N(C(=O)[C@H](NC(=O)OC)c2ccccc2)C1` [Example OP, Methyl {(1R)-2-[(2S,4S)-2-(9-{2-[(2S,5S)-1-{(2S)-2-[(methoxycarbonyl)amino]-3-methylbutanoyl}-5-methylpyrrolidin-2-yl]-1H-imidazol-5-yl}-1,4,5,11-tetrahydroisochromeno[4′,3′:6,7]naphtho[1,2-d]imidazol-2-yl)-4-(methoxymethyl)pyrrolidin-1-yl]-2-oxo-1-phenylethyl}carbamate]: the EC50 is less than 1 nM in series [1] (read-out: 1a); 0.013 nM in series [1] (read-out: 1a (nM)); less than 1 nM in series [2] (read-out: 2a JFH); 0.008 nM in series [2] (read-out: 2a JFH (nM)); less than 1 nM in series [3] (read-out: 3a); 0.027 nM in series [3] (read-out: 3a (nM)). Moreover, the EC50 was less than 1 nM in series [4] (read-out: 2a J6); 0.018 nM in series [4] (read-out: 2a Jb (t) (nM)); less than 1 nM in series [5] (read-out: 2b); 0.007 nM in series [5] (read-out: 2b (s) (nM)); 0.011 nM in series [5] (read-out: 2b (t) (nM)); less than 1 nM in series [7] (read-out: 1a Q30R). Further, the EC50 in series [7] (read-out: 1a Q30R (nM)) was 0.026 nM. The bioavailability in series [8] is 15.1%.
`CC[C@H](C)[C@H](NC(=O)OC)C(=O)N1[C@@H](C)CC[C@H]1c1ncc(-c2ccc3c(c2)COc2cc4c(ccc5nc([C@@H]6C[C@H](COC)CN6C(=O)[C@H](NC(=O)OC)c6ccccc6)[nH]c54)cc2-3)[nH]1` [Example OW]: the EC50 in series [1] (read-out: 1a) is less than 1 nM; in series [1] (read-out: 1a (nM)) it was 0.009 nM; in series [2] (read-out: 2a JFH) it was less than 1 nM; in series [2] (read-out: 2a JFH (nM)) it was 0.006 nM; in series [3] (read-out: 3a), less than 1 nM; in series [3] (read-out: 3a (nM)), 0.013 nM. The EC50 is less than 1 nM in series [4] (read-out: 2a J6); 0.009 nM in series [4] (read-out: 2a Jb (t) (nM)); less than 1 nM in series [5] (read-out: 2b); 0.008 nM in series [5] (read-out: 2b (t) (nM)); less than 1 nM in series [7] (read-out: 1a Q30R); 0.019 nM in series [7] (read-out: 1a Q30R (nM)). In addition, the bioavailability in series [8] is 13.3%.
